# Results as given in patent publication US7601745B2, “Heterocyclic NF-kB inhibitors” (4SC AG, priority 2004, dated 2009).
# System: A549-NF-κB-SEAP reporter cells
# Assay: Inhibition of NF-κB-induced inflammation ([…] NINA Instant Assay, SEAP reporter)
# Assay type: cell-based
# Details: compounds of formula (I); TNF-α stimulated reporter cells; test concentration not given
# Procedure, shortened: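 Reporter cells reactivated 18 h at 37° C, pre-incubated 4.5 h with compound (0.01 up to 100 μM), then stimulated with 2 ng/ml TNF-α for 22 h. SEAP measured by CSPD chemiluminescence (40 min) after endogenous phosphatase inactivation; EC50 fitted from quadruplicates.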
row,SMILES,"Biological activity (NF-κB inflammation assay, inhibition)"
1,O=C(c1csc(C2CCN(C(=O)c3cc(-c4ccc(Cl)cc4)oc3C(F)(F)F)CC2)n1)N1CCN(c2cccc(C(F)(F)F)c2)CC1 [compound 218],+++ (“+++” stands for 90-100% inhibition)
2,Cc1noc(C)c1C(=O)N1CCC(c2nc(C(=O)N3CCN(c4cccc(C(F)(F)F)c4)CC3)cs2)CC1 [compound 219],+ (“+” stands for 50-80% inhibition)
3,Cc1nnsc1C(=O)N1CCC(c2nc(C(=O)N3CCN(c4cccc(C(F)(F)F)c4)CC3)cs2)CC1 [compound 221],+ (“+” stands for 50-80% inhibition)
4,O=C(c1cccnc1)N1CCC(c2nc(C(=O)N3CCN(c4cccc(C(F)(F)F)c4)CC3)cs2)CC1 [compound 222],+ (“+” stands for 50-80% inhibition)
5,O=C(c1csc(C2CCN(C(=O)c3ccccc3OC(F)(F)F)CC2)n1)N1CCN(c2cccc(C(F)(F)F)c2)CC1 [compound 223],+++ (“+++” stands for 90-100% inhibition)
6,O=C(CCC1CCCC1)N1CCC(c2nc(C(=O)N3CCN(c4cccc(C(F)(F)F)c4)CC3)cs2)CC1 [compound 224],+ (“+” stands for 50-80% inhibition)
7,COc1cc(C(=O)N2CCC(c3nc(C(=O)N4CCN(c5cccc(C(F)(F)F)c5)CC4)cs3)CC2)cc(OC)c1OC [compound 225],+ (“+” stands for 50-80% inhibition)
8,CN(C)c1cccc(C(=O)N2CCC(c3nc(C(=O)N4CCN(c5cccc(C(F)(F)F)c5)CC4)cs3)CC2)c1 [compound 226],++ (“++” means 80-90%)
9,COc1ccccc1N1CCN(C(=O)c2csc(C3CCN(C(=O)Cc4ccc(F)cc4)CC3)n2)CC1 [compound 229],+ (“+” stands for 50-80% inhibition)
10,O=C(c1csc(C2CCN(C(=O)c3ccco3)CC2)n1)N1CCN(c2cccc(C(F)(F)F)c2)CC1 [compound 230],+ (“+” stands for 50-80% inhibition)
11,CCCCN1CCN(C(=O)c2csc(C3CCN(C(=O)Cc4ccc(F)cc4)CC3)n2)CC1 [compound 231],+ (“+” stands for 50-80% inhibition)
12,O=C(Cc1ccc(F)cc1)N1CCC(c2nc(C(=O)N3CCN(c4ccccn4)CC3)cs2)CC1 [compound 237],+ (“+” stands for 50-80% inhibition)
13,O=C(Cc1ccc(F)cc1)N1CCC(c2nc(C(=O)N3CCN(c4cccc(Cl)c4)CC3)cs2)CC1 [compound 238],+ (“+” stands for 50-80% inhibition)

# Same assay, conditions: compounds of formula (Ic); TNF-α stimulated reporter cells; test concentration not given
row,SMILES,"Biological activity (NF-κB inflammation assay, inhibition)"
1,COc1cc2c(cc1OC)CN(C(=O)c1csc(C3CCN(C(=O)Cc4ccc(F)cc4)CC3)n1)C(C)C2 (centres unmarked) [compound 232],+ (“+” stands for 50-80% inhibition)
2,CC1c2cc(O)c(O)cc2CCN1C(=O)c1csc(C2CCN(C(=O)Cc3ccc(F)cc3)CC2)n1 (centres unmarked) [compound 233],+ (“+” stands for 50-80% inhibition)
3,COc1cc2c(cc1OC)C(C)N(C(=O)c1csc(C3CCN(C(=O)Cc4ccc(F)cc4)CC3)n1)CC2 (centres unmarked) [compound 234],+ (“+” stands for 50-80% inhibition)
4,CNc1ccc(Cl)cc1C1c2ccccc2CCN1C(=O)c1csc(C2CCN(C(=O)Cc3ccc(F)cc3)CC2)n1 (centres unmarked) [compound 235],+ (“+” stands for 50-80% inhibition)
